Source: patent publication US9303009B2, “Migrastatins and uses thereof” (Sloan-Kettering Institute for Cancer Research, priority 2011, dated 2016)

How the values were obtained:
[1] = system: lung cancer (H299-GL, H522-GL, H647-GL, A549-GL, H1993, H1075-GL, H1373-GL H1703 cells); experiment: toxicity by alamarBlue, lung cancer cell lines; format: cell-based; details: mean of 8 cell lines
Description: Dilutions of DMSO without compound were used as a control. After 18 hrs or 2 days, the cultures were pulsed with 6 μl of alamarBlue® (Invitrogen Inc. Grand Island, N.Y.) and incubated overnight. The alamarBlue® provides a cell growth indicator based on detection of metabolic activity. The assay system incorporates an oxidation-reduction indicator that both fluoresces and changes color in response to chemical reduction of growth medium resulting from cell growth. The fluorescence intensity was measured using a Synergy H1 Microplate Reader (Biotek Inc, Winooski, VT) and a dose-response curve established for IC50 determination.

[2] = system: multiple myeloma (RPMI8226, MM1S, ARP-GL, CAG-GL, OPM2-GL, SKO-007-GL, U266-GL, MM1R cells); experiment: toxicity by alamarBlue, multiple myeloma cell lines; format: cell-based, human; details: mean of 8 cell lines
Description: (§1) The toxicity of compounds 42-45 and their IC50 was determined on a panel of human tumor cell lines of multiple myeloma (RPMI8226, MM1S, MM1R, ARP-GL, CAG-GL, OPM2-GL, SKO-007-GL, U266-GL,) and lung cancer (H299-GL, H522-GL, H647-GL, A549-GL, A549-GL, HI993, H1075-GL, HI373, H17030) origin. Tumor cells were dissociated into a single-cell suspension by Trypsin/Collagenase IV treatment and 500 cells per well were aliquoted into each well of 384 microwell plates in 50 μl of RPMI medium with 10% FCS. Compounds 42-45 were dissolved in DMSO and serially diluted in RPMI medium plus 10% FCS and added (1 mM to 1 nM) to quadruplicate wells containing tumor cells. Dilutions of DMSO without compound were used as a control. After 18 hrs or 2 days, the cultures were pulsed with 6 μl of alamarBlue® (Invitrogen Inc. Grand Island, N.Y.) and incubated overnight. The alamarBlue® provides a cell growth indicator based on detection of metabolic activity. The assay system incorporates an oxidation-reduction indicator that both fluoresces and changes color in response to chemical reduction of growth medium resulting from cell growth. The fluorescence intensity was measured using a Synergy H1 Microplate Reader (Biotek Inc, Winooski, VT) and a dose-response curve established for IC50 determination.

[3] = system: CAG multiple myeloma cells; experiment: multiple myeloma transwell migration towards SDF-1α; format: cell-based; details: pretreatment 8 h, transmigration 6 h
Description: (§2) Multiple myeloma cell chemotaxis was performed towards a SDF-1α in a modified Boyden chamber consisting of a cell culture insert (4.26 mm diameter, 8-μm pore polyester membrane) seated in each well of a 96-well plate (HTS Transwell-96 System, Corning). Briefly, multiple myeloma cells were grown as subconfluent cultures then starved for 24 hours in serum-free IMDM medium. Single-cell suspensions were prepared by mechanical dissociation, then the cells were counted and a total of 5.10^4 cells suspended in serum-free IMDM medium were seeded into the upper chamber, then positioned in a 96-well plate, containing medium with or without SDF-1α (at 200 ng/mL). […] Migrastatin analogs or DMSO (vehicle) were added to the medium at 0.5% in both chambers. Migration assays were carried out for 6 hours in a humidified incubator at 37° C. with 5% CO2. At the assay endpoint, the inserts were removed and the migrating cells were counted in the well. The migration in response to the test condition was calculated relative to the DMSO vehicle control.

[4] = system: H929 multiple myeloma cells; experiment: as above; format: cell-based; details: pretreatment 8 h, transmigration 6 h
Description: as §2

[5] = system: human tumor cell lines of multiple myeloma and lung cancer; experiment: toxicity by alamarBlue, whole panel; format: cell-based
Description: as §1

Row | Structure (SMILES) | Estimated lethal doses (LD50) ([1]; 18 h exposure) | Estimated lethal doses (LD50) ([1]; 48 h exposure) | Estimated lethal doses (LD50) ([2]; 18 h exposure) | Estimated lethal doses (LD50) ([2]; 48 h exposure) | % of migration relative to DMSO control ([3]; 5 μM) | % of migration relative to DMSO control ([3]; 250 μM) | % of migration relative to DMSO control ([4]; 5 μM) | % of migration relative to DMSO control ([4]; 250 μM) | IC50 [5]
1 | CO[C@H]1/C=C/CCCCCOC/C(C)=C\[C@@H](C)[C@@H]1OCCO [Compound 43] | 523.9 µM | 510.7 µM | 530.8 µM | 406.1 µM | 82.04% | 0.71% | 52.26% | 0.98% | 300 to 795 µM
2 | CCNC(=O)O[C@H]1[C@H](C)/C=C(/C)COCCCCC/C=C/[C@@H]1OC [Compound 45] | 446.9 µM | 446.8 µM | 275.6 µM | 217.3 µM | 54.48% | 0.58% | 62.38% | 5.51% | 300 to 795 µM
3 | CNC(=O)CO[C@H]1[C@H](C)/C=C(/C)COCCCCC/C=C/[C@@H]1OC [Compound 44] | 299.7 µM | 316.7 µM | 182.5 µM | 210.6 µM | 86.22% | 0.05% | 81.48% | 4.06% | 300 to 795 µM
4 | COC(=O)CO[C@H]1[C@H](C)/C=C(/C)COCCCCC/C=C/[C@@H]1OC [Compound 42] | 741.2 µM | 602.7 µM | 515.2 µM | 476.4 µM | 93.63% | 0.23% | 91.03% | 7.08% | 300 to 795 µM
